# From ChEMBL document CHEMBL1201862, “PubChem BioAssay data set” (2004)
# Active and inactive are the calls of the source.
# Legend:
# [1] = tested on: Vero; assay: host cell cytotoxicity of antiviral hits, dose response, cytotoxicity control for West Nile virus antiviral project, secondary assay (AID 1650); format: functional; conditions: Chlorocebus sabaeus
# [2] = tested on: Escherichia coli; assay: microbe, parasite or virus in culture
# [3] = cytotoxicity toward DRD oncogenic fibroblasts, dose response, cell-based, non-viral oncogenic, luminescence (AID 1934); format: functional; conditions: Homo sapiens
# [4] = molecular target: Beta-galactosidase (Escherichia coli, UniProt Q8VNN2); assay: PubChem AID 485352; format: functional
# Sequence of Beta-galactosidase (Q8VNN2 whole entry): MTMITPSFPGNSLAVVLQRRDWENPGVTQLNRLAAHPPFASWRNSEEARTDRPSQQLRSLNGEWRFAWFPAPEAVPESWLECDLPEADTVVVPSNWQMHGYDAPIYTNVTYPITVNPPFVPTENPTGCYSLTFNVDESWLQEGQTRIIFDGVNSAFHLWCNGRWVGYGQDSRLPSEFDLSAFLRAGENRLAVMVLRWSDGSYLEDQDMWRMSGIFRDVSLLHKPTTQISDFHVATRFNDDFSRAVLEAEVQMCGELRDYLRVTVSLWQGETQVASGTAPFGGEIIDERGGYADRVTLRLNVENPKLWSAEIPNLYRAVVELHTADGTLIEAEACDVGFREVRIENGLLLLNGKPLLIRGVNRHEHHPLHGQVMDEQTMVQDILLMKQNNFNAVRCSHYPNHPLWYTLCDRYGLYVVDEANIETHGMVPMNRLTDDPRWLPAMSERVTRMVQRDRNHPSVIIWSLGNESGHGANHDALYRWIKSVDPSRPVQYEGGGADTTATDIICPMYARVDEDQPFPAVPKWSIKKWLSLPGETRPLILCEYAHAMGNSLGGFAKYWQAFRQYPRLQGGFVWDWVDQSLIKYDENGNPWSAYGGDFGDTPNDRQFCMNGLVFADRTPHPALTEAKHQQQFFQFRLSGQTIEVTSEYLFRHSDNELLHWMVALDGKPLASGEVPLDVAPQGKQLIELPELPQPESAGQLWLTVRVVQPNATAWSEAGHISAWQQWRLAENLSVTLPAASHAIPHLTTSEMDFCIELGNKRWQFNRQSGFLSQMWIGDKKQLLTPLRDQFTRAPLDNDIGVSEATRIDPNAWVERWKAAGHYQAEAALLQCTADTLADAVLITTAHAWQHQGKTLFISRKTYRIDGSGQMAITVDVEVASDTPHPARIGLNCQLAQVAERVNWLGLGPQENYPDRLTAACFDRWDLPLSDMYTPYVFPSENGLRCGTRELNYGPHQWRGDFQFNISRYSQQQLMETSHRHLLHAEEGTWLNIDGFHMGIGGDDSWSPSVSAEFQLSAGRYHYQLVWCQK
# [5] = microbe, parasite or virus in culture; format: functional; conditions: Mycobacterium tuberculosis
# [6] = molecular target: Heat shock protein HSP 90-alpha (Homo sapiens, UniProt P07900); format: functional, organism-based
# [7] = tested on: BJ; assay: cells; format: functional, cell-based; conditions: Homo sapiens
# [8] = tested on: BJ; assay: cytotoxicity toward Ras-transformed BJeLR fibroblasts, dose response, cell-based, alamar blue fluorescence, cherrypicked samples (AID 2631); format: functional; conditions: Homo sapiens;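 further: confirmatory dose-response assay in RAS-dependent BJ fibroblasts engineered with TERT, LT and ST, with cytotoxicity read by fluorescence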
# [9] = tested on: BJ; assay: cytotoxicity toward BJ-TERT fibroblasts, dose response, cell-based, RAS-independent, luminescence (AID 1933); format: functional; conditions: Homo sapiens
# [10] = Luminescence-based dose response cell-based high throughput screening assay for cytotoxic compounds using the IEC-6 intestinal epithelial cell line. [Related pubchem assays: 1858 (Summary AID.), 1825 (Counterscreen.), 1907 (Confirmation screen.)]; format: functional
# [11] = tested on: Escherichia coli; assay: microbe, parasite or virus in culture; remark: listed apart in the source
# [12] = molecular target: T1, Type-1 angiotensin II receptor (Homo sapiens, UniProt P30556); assay: AT1 receptor antagonists, dose response, selectivity assay for APJ receptor antagonist project, cell-based, uHTS hits (AID 463214); format: functional;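 further: antagonist potency against angiotensin II stimulated AT1 response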
# T1 sequence (P30556 whole entry): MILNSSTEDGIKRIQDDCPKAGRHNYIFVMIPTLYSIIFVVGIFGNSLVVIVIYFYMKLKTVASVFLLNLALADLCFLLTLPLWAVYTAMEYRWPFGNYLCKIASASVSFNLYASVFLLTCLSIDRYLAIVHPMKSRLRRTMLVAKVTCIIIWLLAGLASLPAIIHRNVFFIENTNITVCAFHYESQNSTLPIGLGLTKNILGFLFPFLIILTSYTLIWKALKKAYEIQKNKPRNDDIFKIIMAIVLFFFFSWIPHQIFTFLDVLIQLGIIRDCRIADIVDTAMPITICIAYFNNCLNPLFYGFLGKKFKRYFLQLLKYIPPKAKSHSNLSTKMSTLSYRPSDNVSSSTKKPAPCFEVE
# [13] = tested on: BJ; assay: cytotoxicity toward BJ-TERT-LT-ST fibroblasts, dose response, cell-based, RAS-independent, luminescence (AID 1935); format: functional; conditions: Homo sapiens;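 further: BJ fibroblasts immortalized with TERT plus LT and ST oncogenes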
# [14] = molecular target: Serine/threonine-protein phosphatase (Homo sapiens, UniProt Q9BPW0); assay: PP5 phosphatase inhibitors, dose response, biochemical, fluorescence (AID 2395)
# [15] = molecular target: Serine/threonine-protein phosphatase PP1-alpha catalytic subunit (Homo sapiens, UniProt P62136); assay: PP1 phosphatase inhibitors, dose response, biochemical, fluorescence (AID 2394)
# Sequence of Serine/threonine-protein phosphatase PP1-alpha catalytic subunit (P62136 whole entry): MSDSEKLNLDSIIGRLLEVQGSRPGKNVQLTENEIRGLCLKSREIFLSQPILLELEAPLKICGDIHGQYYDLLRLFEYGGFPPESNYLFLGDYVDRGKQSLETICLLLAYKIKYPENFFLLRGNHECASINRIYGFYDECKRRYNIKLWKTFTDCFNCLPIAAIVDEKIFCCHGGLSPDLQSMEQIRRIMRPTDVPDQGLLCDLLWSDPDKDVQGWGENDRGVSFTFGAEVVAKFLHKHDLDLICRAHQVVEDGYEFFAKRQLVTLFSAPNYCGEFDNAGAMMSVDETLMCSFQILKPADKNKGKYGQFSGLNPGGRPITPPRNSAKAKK
# [16] = Luminescence Cell-Based Dose Confirmation to Identify Activators of 5'UTR Stem-Loop Driven Alpha-Synuclein mRNA Translation in H4 Neuroglioblastoma Cells. [Related pubchem assays: 1829 (Project Summary), 1814 (Primary HTS)]; format: functional
# [17] = Luminescence Cell-Based Dose Response to Identify Activators of 5'UTR Stem-Loop Driven Prion Protein mRNA Translation in H4-C Neuroglioblastoma Cells. [Related pubchem assays: 1829 (Project Summary), 1814 (Primary HTS)]; format: functional
# [18] = tested on: H4; assay: Luminescence Cell-Based Dose Response HTS to Identify Activators of 5'UTR Stem-Loop Driven Prion Protein mRNA Translation in H4 Neuroglioblastoma Cells. [Related pubchem assays: 1829 (Project Summary), 1814 (Primary HTS)]; format: functional; conditions: Homo sapiens
# [19] = Luminescence Cell-Based Dose Response to Identify Activators of Luciferase Translation or Activity in H4-C Neuroglioblastoma Cells. [Related pubchem assays: 1829 (Project Summary), 1814 (Primary HTS)]; format: functional
# [20] = Luminescence Cell-Based Dose Response HTS to Identify Activators of Luciferase Translation or Activity in H4 […] Cells. [Related pubchem assays: 1829 (Project Summary), 1814 (Primary HTS)]; format: functional
# [21] = enhancers of respiration in Yfh1-depleted yeast, dose response, Friedreich's ataxia, plus single-dose screen (AID 1465); format: functional;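 further: yeast depleted of Yfh1p frataxin homolog grown on glycerol needing respiration; WST-1 tetrazolium dye reduction as measure of cellular dehydrogenase metabolic activity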
# [22] = molecular target: Steroidogenic factor 1 (Homo sapiens, UniProt Q13285); assay: Counterscreen for inverse agonists of the liver receptor homolog-1 (LRH-1; NR5A2): Luminescence-based cell-based high throughput dose response assay to identify inverse agonists of the Steroidogenic Factor 1 Nuclear Receptor (SF1; NR5A1).; format: functional
# Sequence of Steroidogenic factor 1 (Q13285 whole entry): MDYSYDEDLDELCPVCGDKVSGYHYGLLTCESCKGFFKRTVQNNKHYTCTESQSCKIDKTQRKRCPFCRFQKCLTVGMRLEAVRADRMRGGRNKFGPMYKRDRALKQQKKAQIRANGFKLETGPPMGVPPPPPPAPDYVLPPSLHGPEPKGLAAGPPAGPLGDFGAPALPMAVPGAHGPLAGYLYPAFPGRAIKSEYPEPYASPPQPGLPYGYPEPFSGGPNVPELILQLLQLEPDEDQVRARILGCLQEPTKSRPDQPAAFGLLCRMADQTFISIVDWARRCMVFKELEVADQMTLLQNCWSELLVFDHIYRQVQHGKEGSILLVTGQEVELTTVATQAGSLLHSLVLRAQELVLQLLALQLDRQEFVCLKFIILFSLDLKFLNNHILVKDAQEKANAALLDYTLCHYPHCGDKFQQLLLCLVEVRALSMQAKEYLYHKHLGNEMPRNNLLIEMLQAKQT
# [23] = StAR promoter reporter inhibition counter-screen, dose response, counter-screen for LRH-1 inverse agonist project, cell-based, luminescence, luciferase reporter (AID 651969); format: functional
# [24] = molecular target: Nuclear receptor subfamily 5 group A member 2 (Homo sapiens, UniProt O00482); format: functional, cell-based;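 further: HEK293T cells transfected with LRH-1 and a StAR promoter luciferase reporter; potency for inhibitors that lower LRH-1 driven reporter light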
# Sequence of Nuclear receptor subfamily 5 group A member 2 (O00482 whole entry): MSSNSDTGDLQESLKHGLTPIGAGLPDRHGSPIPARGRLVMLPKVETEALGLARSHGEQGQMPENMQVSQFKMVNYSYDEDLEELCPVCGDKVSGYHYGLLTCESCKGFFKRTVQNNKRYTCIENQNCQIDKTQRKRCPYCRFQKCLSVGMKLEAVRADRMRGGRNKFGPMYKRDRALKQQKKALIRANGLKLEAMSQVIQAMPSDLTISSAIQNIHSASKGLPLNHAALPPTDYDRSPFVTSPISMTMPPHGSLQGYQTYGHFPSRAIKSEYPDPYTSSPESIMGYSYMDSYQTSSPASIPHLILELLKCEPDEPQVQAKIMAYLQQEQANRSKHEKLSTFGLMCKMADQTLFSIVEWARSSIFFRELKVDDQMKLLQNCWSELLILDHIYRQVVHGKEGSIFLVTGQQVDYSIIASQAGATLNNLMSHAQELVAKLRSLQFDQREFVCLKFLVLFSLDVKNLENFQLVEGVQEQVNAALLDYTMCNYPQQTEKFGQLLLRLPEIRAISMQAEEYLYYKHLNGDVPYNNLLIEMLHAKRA
# [25] = molecular target: Ras and Rab interactor 1/Tyrosine-protein kinase ABL1 (Homo sapiens, UniProt P00519+Q13671); format: functional;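 further: biochemical TR-FRET dose-response test measuring inhibition of binding between Rin1 and Abl proteins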
# Sequence of Ras and Rab interactor 1/Tyrosine-protein kinase ABL1 (P00519 whole entry): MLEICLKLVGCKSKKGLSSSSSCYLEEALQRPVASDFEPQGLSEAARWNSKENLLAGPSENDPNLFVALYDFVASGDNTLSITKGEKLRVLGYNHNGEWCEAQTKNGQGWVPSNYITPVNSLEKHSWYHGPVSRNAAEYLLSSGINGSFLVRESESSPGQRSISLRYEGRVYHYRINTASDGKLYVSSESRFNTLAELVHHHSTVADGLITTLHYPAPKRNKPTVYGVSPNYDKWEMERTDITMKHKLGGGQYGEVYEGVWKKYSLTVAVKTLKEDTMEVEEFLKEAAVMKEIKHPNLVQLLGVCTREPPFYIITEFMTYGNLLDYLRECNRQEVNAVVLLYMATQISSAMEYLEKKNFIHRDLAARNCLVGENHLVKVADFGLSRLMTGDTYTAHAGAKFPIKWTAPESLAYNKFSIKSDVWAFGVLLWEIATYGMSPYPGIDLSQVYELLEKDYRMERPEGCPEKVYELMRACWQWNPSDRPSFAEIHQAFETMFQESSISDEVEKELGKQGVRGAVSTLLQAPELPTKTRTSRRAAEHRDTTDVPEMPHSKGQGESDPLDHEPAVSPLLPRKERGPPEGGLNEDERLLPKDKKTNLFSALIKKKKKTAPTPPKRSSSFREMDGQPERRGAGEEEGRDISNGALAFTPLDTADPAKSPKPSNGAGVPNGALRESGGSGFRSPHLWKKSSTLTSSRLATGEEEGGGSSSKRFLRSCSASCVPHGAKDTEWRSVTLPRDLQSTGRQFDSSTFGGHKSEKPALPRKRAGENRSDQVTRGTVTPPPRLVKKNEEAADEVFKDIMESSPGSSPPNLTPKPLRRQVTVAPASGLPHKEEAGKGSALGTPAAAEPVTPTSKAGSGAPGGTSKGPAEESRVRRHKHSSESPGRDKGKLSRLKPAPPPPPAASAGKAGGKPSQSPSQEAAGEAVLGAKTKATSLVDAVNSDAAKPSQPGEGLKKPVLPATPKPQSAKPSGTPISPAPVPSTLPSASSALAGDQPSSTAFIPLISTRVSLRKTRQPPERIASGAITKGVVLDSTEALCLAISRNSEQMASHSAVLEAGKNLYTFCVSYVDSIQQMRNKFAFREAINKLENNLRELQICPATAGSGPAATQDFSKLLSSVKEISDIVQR
# Sequence of Ras and Rab interactor 1/Tyrosine-protein kinase ABL1 (Q13671 whole entry): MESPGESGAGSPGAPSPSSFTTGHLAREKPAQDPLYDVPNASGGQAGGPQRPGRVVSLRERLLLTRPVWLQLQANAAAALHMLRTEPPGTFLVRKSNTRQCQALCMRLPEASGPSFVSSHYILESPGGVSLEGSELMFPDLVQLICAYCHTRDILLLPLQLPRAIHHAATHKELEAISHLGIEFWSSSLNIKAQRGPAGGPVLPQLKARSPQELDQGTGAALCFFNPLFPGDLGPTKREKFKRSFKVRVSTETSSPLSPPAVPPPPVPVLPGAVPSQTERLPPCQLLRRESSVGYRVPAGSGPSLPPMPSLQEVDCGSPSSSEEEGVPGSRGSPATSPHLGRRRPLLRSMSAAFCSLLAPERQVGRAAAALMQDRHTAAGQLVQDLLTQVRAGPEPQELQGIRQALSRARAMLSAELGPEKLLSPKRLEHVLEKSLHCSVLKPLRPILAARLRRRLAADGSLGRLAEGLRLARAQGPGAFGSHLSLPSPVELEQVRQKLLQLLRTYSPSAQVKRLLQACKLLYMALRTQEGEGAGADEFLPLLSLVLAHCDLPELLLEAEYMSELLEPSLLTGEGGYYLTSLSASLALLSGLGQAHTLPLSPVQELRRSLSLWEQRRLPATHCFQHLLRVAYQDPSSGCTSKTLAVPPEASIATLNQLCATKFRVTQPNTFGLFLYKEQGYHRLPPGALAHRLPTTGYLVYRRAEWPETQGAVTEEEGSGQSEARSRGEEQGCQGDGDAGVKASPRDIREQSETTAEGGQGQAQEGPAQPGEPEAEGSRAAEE
# [26] = molecular target: T2, Mannose-6-phosphate isomerase (Homo sapiens, UniProt P34949); assay: human PMI inhibitors, high substrate, primary screen, biochemical, fluorescence intensity, high mannose 6-phosphate (AID 1220)
# T2 sequence (P34949 whole entry): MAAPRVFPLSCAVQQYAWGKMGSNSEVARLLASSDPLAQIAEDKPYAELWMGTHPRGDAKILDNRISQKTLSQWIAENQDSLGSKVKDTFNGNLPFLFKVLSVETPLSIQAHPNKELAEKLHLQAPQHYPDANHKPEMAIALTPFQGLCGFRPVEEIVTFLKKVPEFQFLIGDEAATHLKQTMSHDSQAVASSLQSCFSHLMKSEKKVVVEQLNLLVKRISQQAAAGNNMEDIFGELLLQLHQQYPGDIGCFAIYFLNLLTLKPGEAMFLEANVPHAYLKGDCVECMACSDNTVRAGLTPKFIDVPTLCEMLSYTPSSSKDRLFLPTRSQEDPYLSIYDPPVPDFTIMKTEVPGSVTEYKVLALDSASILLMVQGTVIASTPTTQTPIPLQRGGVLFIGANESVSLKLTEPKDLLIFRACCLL
# [27] = molecular target: T2, Mannose-6-phosphate isomerase; assay: inhibitors of human PMI, primary screen, biochemical, fluorescence intensity, coupled assay (AID 1209)
# [28] = molecular target: Genome polyprotein (dengue virus type 2, UniProt P29990); assay: Dengue-2 NS5 methyltransferase inhibitors, primary screen, biochemical, confirmation dose response (AID 588689); format: functional
# [29] = tested on: HEK293; assay: inhibitors of LMP1-driven NF-kB reporter, dose response, cell-based, HEK293, luciferase, cherry-pick (AID 588343); format: functional; conditions: Homo sapiens
# [30] = cells; format: functional, cell-based
# [31] = inhibitors of intracellular T. cruzi replication, confirmation, NIH3T3 host cells, beta-gal luminescence (AID 2044); format: functional, cell-based;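 further: intracellular parasites grown in NIH/3T3 mouse fibroblasts as host cells; luminescent beta-galactosidase reporter signal from transgenic T. cruzi replicating inside host cells; inhibitors lower the luminescence signal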
# [32] = molecular target: Latent membrane protein 1 (Human herpesvirus 4 (strain B95-8), UniProt P03230); assay: TES1-eGFP NF-kB reporter inhibition versus Tet-On dsRED, dose response, selectivity assay for LMP1 NF-kB inhibitor project, imaging, HEK293T, dual-color eGFP/dsRED, cherry-picks (AID 588398); format: functional, cell-based
# [33] = molecular target: Bcl-2-like protein 1 (Homo sapiens, UniProt Q07817); assay: BCL-XL inhibitors, dose response, selectivity assay for MCL1 inhibitor project, biochemical, fluorescence polarization, 1536-well (AID 2218)
# Sequence of Bcl-2-like protein 1 (Q07817 whole entry): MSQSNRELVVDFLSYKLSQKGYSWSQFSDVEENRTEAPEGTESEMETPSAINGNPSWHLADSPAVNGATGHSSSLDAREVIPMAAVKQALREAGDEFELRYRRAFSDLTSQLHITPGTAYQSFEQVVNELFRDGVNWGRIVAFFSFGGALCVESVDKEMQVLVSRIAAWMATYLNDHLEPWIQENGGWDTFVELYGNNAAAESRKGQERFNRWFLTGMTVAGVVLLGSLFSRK
# [34] = cytotoxicity toward NIH3T3 fibroblasts, dose response, counter-screen, cell-based, ATP luminescence, mouse fibroblasts (AID 2010); format: functional;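 further: cells exposed to compound for about 90 hours before reading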
# [35] = molecular target: Induced myeloid leukemia cell differentiation protein Mcl-1 (Homo sapiens, UniProt Q07820); assay: MCL1-BIM BH3 interaction inhibitors, dose response, biochemical, fluorescence polarization, BIM-BH3 peptide, 1536-well (AID 2217)
# Sequence of Induced myeloid leukemia cell differentiation protein Mcl-1 (Q07820 whole entry): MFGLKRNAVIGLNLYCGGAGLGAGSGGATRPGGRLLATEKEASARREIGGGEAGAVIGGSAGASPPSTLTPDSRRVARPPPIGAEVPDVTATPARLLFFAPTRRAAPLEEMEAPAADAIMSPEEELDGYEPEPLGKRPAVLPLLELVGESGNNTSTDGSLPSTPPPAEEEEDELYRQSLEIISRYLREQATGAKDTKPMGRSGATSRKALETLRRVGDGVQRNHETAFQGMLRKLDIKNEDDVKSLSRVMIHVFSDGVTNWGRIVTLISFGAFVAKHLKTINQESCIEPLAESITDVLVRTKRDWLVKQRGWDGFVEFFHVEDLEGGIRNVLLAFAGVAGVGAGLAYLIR
# [36] = cells; format: functional, cell-based; remark: listed apart in the source
# [37] = tested on: Streptococcus; assay: Group A Streptococcus viability loss, dose response, counter-screen for streptokinase expression inhibitor project, luminescence, BacTiterGlo (AID 1915); format: functional, organism-based;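 further: potency for reduction of bacterial viability or growth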
# [38] = insulin promoter down-regulators in MIN6 cells, imaging, high-content screening, mouse beta cells (AID 1628); format: functional
# [39] = tested on: HEK293; assay: NOD2 signaling inhibitors in MDP-stimulated cells, cell-based, uHTS, luminescence (AID 2001); format: functional; conditions: Homo sapiens
# [40] = molecular target: Genome polyprotein (Hepatitis C virus, UniProt Q2Q167); assay: HCV core protein dimerization inhibitors, dose response, biochemical, TR-FRET (AID 2159); parameters: species or system Hepacivirus hominis;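 further: blocks dimerization of HCV core protein measured by TR-FRET between tagged core106 pairs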
# Sequence of Genome polyprotein (Hepatitis C virus, UniProt Q2Q167) (Q2Q167 whole entry): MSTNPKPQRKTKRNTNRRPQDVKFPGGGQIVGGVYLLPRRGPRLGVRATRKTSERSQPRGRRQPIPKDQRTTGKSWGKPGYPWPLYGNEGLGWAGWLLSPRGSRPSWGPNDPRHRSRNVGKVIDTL
# [41] = tested on: HEK293; assay: NOD1 signaling inhibitors, primary screen, cell-based, luminescence, uHTS (AID 1578); format: functional; conditions: Homo sapiens
# [42] = tested on: HEK293; assay: cells; format: functional, cell-based; conditions: Homo sapiens
# [43] = tested on: HEK293; assay: cells; format: functional, cell-based; conditions: Homo sapiens; remark: listed apart in the source
# [44] = cytotoxicity in MIN6 insulinoma cells, dose response, cytotoxicity control, cell-based, mouse insulinoma (AID 2122); format: functional;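 further: confirmatory high-throughput counterscreen run to flag cytotoxic compounds; mouse MIN-6 beta cells carrying an insulin promoter eGFP reporter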
# [45] = tested on: Streptococcus sp. 'group A'; assay: growth inhibition of control SK(-) GAS strain, dose response, counter-screen for streptokinase expression inhibitor project, luminescence, kanamycin, BacTiterGlo, confirmation (AID 1900); format: functional, organism-based
smiles,measurement,setting,value
Cc1ccc(C(=O)Sc2cccccc2=O)cc1,CC50,[1],48.4 µM (active)
same,AC50,[2],12.7 µM (active)
same,EC50,[3],25.5 µM (active)
same,EC50,[4],> 40 µM (inactive)
same,CC50,[5],11.5 µM (active)
same,AC50,[6],6.06 µM (active)
same,EC50,[7],26 µM (active)
same,EC50,[8],0.075 µM (active)
same,EC50,[9],0.659 µM (inconclusive)
same,IC50,[10],0.848 µM (active)
same,AC50,[11],17 µM (active)
same,IC50,[12],< 1.25 µM (active)
same,EC50,[13],54.9 µM (active)
COCCNC(=O)c1c(N)n(CCC(C)C)c2nc3ccccc3nc12,IC50,[14],13.4 µM (not active)
same,IC50,[15],56.5 µM (not active)
CC(=O)Nc1ccc2c(c1)ncn2-c1ccccc1,EC50,[16],0.218 µM (active)
same,EC50,[17],0.608 µM (active)
same,EC50,[18],> 120 µM (not active)
same,EC50,[19],0.46 µM (active)
same,EC50,[20],< 0.1 µM (inconclusive)
CC1CCCN(c2cc(N(C)CCO)c([N+](=O)[O-])c3nonc23)C1 (stereo not given),EC50,[21],> 100 µM (active)
same,IC50,[22],7.01 µM (active)
same,IC50,[23],35.9 µM (inactive)
same,IC50,[24],12.3 µM (inactive)
Oc1ccc(/C=N/N2CCOCC2)c(O)c1O,IC50,[25],> 73.5 µM (inactive)
same,IC50,[26],10.3 µM (active)
same,IC50,[27],11.6 µM (active)
same,IC50,[28],45 µM (active)
Nc1ccc(C(=O)N/N=C\c2cc(N=Nc3cccc4ccccc34)ccc2O)cc1,AC50,[29],11.1 µM (active)
same,EC50,[30],> 350 µM (not active)
same,EC50,[31],1.12 µM (active)
same,AC50,[32],30.2 µM (active)
same,IC50,[33],> 109 µM (not active)
same,EC50,[34],7.41 µM (active)
same,IC50,[35],6.83 µM (active)
same,EC50,[36],7.62 µM (active)
CC(C)=CCc1c(O)cc2oc3c(CC=C(C)C)c(O)c(O)c(CC=C(C)C)c3c(=O)c2c1O [GARCINONE E],EC50,[37],3.02 µM (active)
same,IC50,[38],2.79 µM (active)
same,IC50,[39],4.65 µM (inactive)
same,IC50,[40],> 49.8 µM (not active)
same,EC50,[41],4.78 µM (active)
same,IC50,[42],6.77 µM (active)
same,IC50,[43],> 20 µM (inactive)
same,IC50,[44],3.46 µM (active)
same,EC50,[45],0.813 µM (active)
